Active and inactive are the calls of the source. The calls are words filed in the database; no cut-off is given here.
Assays:
[1] = target: T1, Epidermal growth factor receptor (Homo sapiens, UniProt P00533); conditions: A-431, at 1 µM
Description: Inhibition of EGFR autophosphorylation in human A431 cells at 1 uM after 1 hr by Western blot

[2] = test system: SW-620; assay: Cytotoxicity against human SW620 cells at 10 uM after 72 hrs by MTT assay; format: cell-based; conditions: sw-620, 72 h
[3] = target: T1, Epidermal growth factor receptor; assay: Inhibition of EGFR autophosphorylation in human A431 cells after 1 hr by Western blot; format: cell-based, A-431
[4] = test system: SW-620; assay: Cytotoxicity against human SW620 cells after 72 hrs by MTT assay; format: ADME, cell-based; conditions: SW-620, 72 h
[5] = target: T1, Epidermal growth factor receptor; assay: Inhibition of human recombinant EGFR expressed in insect cells by time-resolved fluorimetry; format: cell-based
[6] = test system: NCI-H1975; assay: Antiproliferative activity against human NCI-H1975 cells after 72 hrs by MTT assay; format: functional, cell-based; conditions: NCI-H1975, 72 h
[7] = test system: NCI-H1975; assay: Cytotoxicity against human NCI-H1975 cells assessed as cell death at 5 uM after 72 hrs by propidium iodide/Hoechst staining based fluorescence microscopy; format: functional
[8] = target: Receptor tyrosine-protein kinase erbB-2 (Homo sapiens) (UniProt P04626); assay: Inhibition of ERBB2 autophosphorylation in human NCI-H1975 cells by Western blot; format: cell-based
Receptor tyrosine-protein kinase erbB-2 (Homo sapiens), sequence (P04626 whole entry): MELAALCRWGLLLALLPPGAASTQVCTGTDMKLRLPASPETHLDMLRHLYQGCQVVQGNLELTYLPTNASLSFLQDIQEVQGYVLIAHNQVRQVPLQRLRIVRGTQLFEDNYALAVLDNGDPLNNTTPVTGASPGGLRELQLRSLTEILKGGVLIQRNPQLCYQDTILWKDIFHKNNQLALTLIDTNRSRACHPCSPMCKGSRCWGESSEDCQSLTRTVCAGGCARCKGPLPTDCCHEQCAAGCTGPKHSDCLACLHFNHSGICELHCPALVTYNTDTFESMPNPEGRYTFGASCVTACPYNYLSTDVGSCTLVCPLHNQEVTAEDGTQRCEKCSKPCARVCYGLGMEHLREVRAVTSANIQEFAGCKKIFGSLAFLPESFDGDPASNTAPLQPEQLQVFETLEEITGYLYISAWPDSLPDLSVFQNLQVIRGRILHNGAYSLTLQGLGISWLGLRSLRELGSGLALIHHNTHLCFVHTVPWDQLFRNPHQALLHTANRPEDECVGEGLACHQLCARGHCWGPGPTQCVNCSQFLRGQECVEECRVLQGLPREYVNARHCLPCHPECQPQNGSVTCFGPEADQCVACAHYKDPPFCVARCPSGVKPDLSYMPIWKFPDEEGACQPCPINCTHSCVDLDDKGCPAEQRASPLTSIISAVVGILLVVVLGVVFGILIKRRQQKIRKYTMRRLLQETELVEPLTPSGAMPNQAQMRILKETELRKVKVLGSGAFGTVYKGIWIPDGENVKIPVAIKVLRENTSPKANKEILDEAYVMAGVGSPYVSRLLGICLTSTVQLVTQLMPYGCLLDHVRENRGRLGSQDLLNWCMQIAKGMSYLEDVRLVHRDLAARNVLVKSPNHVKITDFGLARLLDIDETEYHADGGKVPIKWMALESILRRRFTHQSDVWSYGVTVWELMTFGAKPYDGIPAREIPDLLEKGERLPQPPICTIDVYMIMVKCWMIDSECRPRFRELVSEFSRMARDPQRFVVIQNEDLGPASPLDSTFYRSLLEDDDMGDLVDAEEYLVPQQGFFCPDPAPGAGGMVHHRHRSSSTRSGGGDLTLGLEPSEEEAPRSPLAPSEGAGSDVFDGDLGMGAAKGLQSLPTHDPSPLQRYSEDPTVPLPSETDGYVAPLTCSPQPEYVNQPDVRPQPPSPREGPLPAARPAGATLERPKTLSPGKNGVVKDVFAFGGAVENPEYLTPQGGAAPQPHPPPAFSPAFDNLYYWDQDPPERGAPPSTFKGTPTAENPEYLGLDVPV

[9] = target: T1, Epidermal growth factor receptor; conditions: A-431, at 1 µM; remark: listed apart in the source
Description: Inhibition of EGFR autophosphorylation in human A431 cells at 1 uM after 8 hrs by Western blot

[10] = target: T1, Epidermal growth factor receptor; assay: Inhibition of EGFR autophosphorylation in human A431 cells after 8 hrs by Western blot; format: cell-based, A-431
[11] = test system: NCI-H1975; assay: Induction of apoptosis in human NCI-H1975 cells assessed as activation of caspase-3 at 5 uM after 2 days by Western blot; format: functional, cell-based
[12] = test system: A-431; assay: Antiproliferative activity against human A431 cells assessed as viable cells at 10 uM; format: functional; conditions: read-out: Activity

T1 sequence (P00533 whole entry): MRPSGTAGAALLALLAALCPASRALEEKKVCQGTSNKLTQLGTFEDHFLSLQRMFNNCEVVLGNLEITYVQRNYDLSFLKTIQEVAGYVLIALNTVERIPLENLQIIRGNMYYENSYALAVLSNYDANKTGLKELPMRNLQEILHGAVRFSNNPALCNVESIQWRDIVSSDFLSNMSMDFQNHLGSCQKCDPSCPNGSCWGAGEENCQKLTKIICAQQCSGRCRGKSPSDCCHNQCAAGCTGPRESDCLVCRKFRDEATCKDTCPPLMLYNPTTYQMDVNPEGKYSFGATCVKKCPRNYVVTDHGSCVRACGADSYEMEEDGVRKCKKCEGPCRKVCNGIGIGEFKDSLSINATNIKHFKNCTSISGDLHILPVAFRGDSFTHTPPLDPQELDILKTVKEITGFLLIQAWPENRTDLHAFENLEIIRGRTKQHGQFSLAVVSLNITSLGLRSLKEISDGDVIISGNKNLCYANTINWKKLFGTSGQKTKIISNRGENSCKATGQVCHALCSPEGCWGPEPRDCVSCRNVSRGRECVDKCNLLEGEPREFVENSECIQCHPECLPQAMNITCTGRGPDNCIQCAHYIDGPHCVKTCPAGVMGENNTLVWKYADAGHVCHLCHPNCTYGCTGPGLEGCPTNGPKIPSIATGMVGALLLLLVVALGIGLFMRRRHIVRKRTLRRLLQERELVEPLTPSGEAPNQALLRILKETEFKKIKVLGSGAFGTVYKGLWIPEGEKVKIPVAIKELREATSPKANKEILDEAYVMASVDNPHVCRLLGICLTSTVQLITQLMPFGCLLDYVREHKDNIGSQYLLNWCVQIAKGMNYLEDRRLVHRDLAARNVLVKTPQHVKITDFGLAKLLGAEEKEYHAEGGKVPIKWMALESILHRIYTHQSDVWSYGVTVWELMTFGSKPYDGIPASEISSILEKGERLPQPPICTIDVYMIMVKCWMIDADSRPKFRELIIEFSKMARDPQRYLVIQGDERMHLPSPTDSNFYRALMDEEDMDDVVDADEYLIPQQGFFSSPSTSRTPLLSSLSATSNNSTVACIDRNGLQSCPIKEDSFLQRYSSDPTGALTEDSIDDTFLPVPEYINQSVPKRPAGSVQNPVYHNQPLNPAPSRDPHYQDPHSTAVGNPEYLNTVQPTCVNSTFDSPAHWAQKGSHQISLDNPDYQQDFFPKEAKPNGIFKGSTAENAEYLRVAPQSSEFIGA

inhibition [1] [%] | IC50 [5] [nM] | inhibition [9] [%] | Compound | also measured
95.2 | 0.37 | 79.9 | O=C(CNC(=O)Oc1ccccc1)Nc1ccc2ncnc(Nc3cccc(Br)c3)c2c1 | 
 |  |  | C=CC(=O)Nc1ccc2ncnc(Nc3cccc(Br)c3)c2c1 | IC50 [4]: 8230 nM
 |  |  | COc1cc2ncnc(Nc3ccc(F)c(Cl)c3)c2cc1OCCCN1CCOCC1 | Activity [11]: Active
98.5 |  | 0 | Nc1ccc2ncnc(Nc3cccc(Br)c3)c2c1 | 
69 | 0.85 | 30.7 | O=C(Cn1sc2ccccc2c1=O)Nc1ccc2ncnc(Nc3cccc(Br)c3)c2c1 | 
97.4 | 8.43 | 77.6 | O=C(COc1ccc(F)cc1)Nc1ccc2ncnc(Nc3cccc(Br)c3)c2c1 | IC50 [3]: 76 nM; IC50 [6]: 7820 nM; IC50 [10]: 291 nM
82.3 | 129 | 66.9 | CC(C)c1nsc(C(=O)Nc2ccc3ncnc(Nc4cccc(Br)c4)c3c2)n1 | 
0 |  | 0 | O=C(COc1ccccc1)Nc1ccc2ccccc2c1 | viability at 10 µM [12]: < 10%
0 |  | 0 | CCOC(=O)[C@@H]1O[C@H]1C(=O)Nc1ccc2ccccc2c1 | viability at 10 µM [12]: < 10%

Compound | inhibition [1] [%] | IC50 [5] [nM] | inhibition [9] [%] | also measured
O=C(Nc1ccc2ncnc(Nc3cccc(Br)c3)c2c1)[C@@H]1O[C@H]1CN1CCCCC1 | 99.4 | 1.24 | 96.3 | Activity [2]: < 50%; IC50 [3]: 7 nM; IC50 [4]: > 10000 nM; IC50 [6]: 1720 nM; Activity [7]: 25%; inhibition [8]: Dose-dependent effect; IC50 [10]: 44 nM

— ChEMBL document CHEMBL1157583, “Novel irreversible epidermal growth factor receptor inhibitors by chemical modulation of the cysteine-trap portion” (J Med Chem, 2010)
